Read-outs that look alike come from different tables or passages of the source.
Key:
[1] = biological target: 5-HT1A receptors; settings: Martin et al., European J. of Pharmacol. 156 223 (1988); cited from earlier work
[2] = system: male CD rats (Charles River); settings: i.p., reported by Martin et al. 1988; cited from earlier work
[3] = system: male CD rats (Charles River); assay: discrete trial conditioned avoidance responding (CAR) test; type: in vivo; settings: Rattus norvegicus, ip, thirty minutes before the test, instant test procedure, read-out: ED50 (reduction in avoidance responding)
Method: The conditioned avoidance responding (CAR) test was conducted in male CD rats (Charles River) maintained at approximately 400-450 g body weight. Rats trained previously were placed in Plexiglas® experimental chambers equipped with a response lever, house light and sonalert. The steel grid chamber floor is wired for presentation of an electric shock. Each trial consists of a fifteen second warning tone conditioned stimulus, continuing for an additional fifteen seconds accompanied by electric shock (unconditioned stimulus). The rat can terminate a trial at any point by depressing the response lever. A response during the initial fifteen second warning tone ends the trial before shock delivery and is considered an avoidance response. A response occurring during shock delivery is an escape response. […] The ED50 of the test compound is calculated from the percentage reduction in avoidance responding and represents that dose at which only half the responses are made.

[4] = biological target: T1, post synaptic 5-HT1A receptor (Rattus norvegicus, UniProt P19327); settings: for in vivo postsynaptic 5-HT1A activity profile in serotonin syndrome tests: rats, i.p.
T1 sequence (P19327 1-422): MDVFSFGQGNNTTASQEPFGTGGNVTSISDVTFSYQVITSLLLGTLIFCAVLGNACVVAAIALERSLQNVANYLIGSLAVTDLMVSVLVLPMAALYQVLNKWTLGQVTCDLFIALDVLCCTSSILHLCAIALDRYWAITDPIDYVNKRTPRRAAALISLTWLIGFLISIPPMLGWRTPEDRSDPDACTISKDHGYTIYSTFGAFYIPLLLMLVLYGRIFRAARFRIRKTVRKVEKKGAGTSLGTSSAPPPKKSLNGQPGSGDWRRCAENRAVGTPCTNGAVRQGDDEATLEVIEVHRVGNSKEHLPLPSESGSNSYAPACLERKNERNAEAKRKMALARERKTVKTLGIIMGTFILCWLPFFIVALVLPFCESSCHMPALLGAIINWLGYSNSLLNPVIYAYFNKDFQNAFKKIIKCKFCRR
Method: (§1) Serotonin syndrome tests were conducted according to the method of Smith et al., Pharmacol. Biochem. and Behav., 24 1513 (1986).
(§2) Male Sprague-Dawley CD rats (Charles River) weighing 200-300 g were housed 6/cage with food and water available ad libitum. Animals were allowed to acclimate to the animal colony for at least 1 week prior to testing. Rats were placed individually into plexiglas® observation cages with a layer of bedding covering the bottom. […] During the 15 minute pretreatment, subjects were scored for the presence of the 5-HT syndrome (agonist activity). After the 8-OH-DPAT injection, all subjects were scored for an additional 15 minutes to identify antagonist activity. Scoring the 5-HT syndrome consisted of rating the following behaviors: (1) forepaw treading, (2) head-weaving, (3) tremor, (4) hindlimb abduction, (5) flattened body posture, and (6 ) Straub tail on a 4-point ranked intensity scale with a maximum score of 18. Results were expressed as mean total score (+/-SEM) for induction of syndrome and for antagonism of syndrome.

[5] = system: male, Charles River mice, CF-1; assay: rotorod motor coordination (RMC) test
Method: In order to differentiate between specific antiagressive effects and an inhibition of fighting due to debilitation, rotorod motor coordination (RMC) tests were conducted according to an adaptation of the method of Dunham et al., J. Am. Pharm. Assc. […] The amount of time spent on the rod (maximum of 60 seconds) was recorded and compared with the vehicle treated control animals. […] In comparison, the minimum effective dose (mg/kg i.p.) of buspirone in the isolation induced aggression study was 10.0 mg/kg and greater than 60.0 mg/kg in producing ataxia as evaluated by the rotorod motor coordination study.

[6] = system: male Charles River, CF-1 mice; assay: isolation-induced aggression test; settings: for total fighting time (TFT): 60 minutes before testing, 3 minute test, vehicle controls 15.7 seconds
Method: The isolation-induced aggression test was conducted with male mice in an adaptation of the method of DaVanzo et al., Psychopharmacology, (Berlin) 9 210 (1966) whereby male Charles River, CF-1 mice, 16-20 g in weight were individually housed for a period of three weeks and then trained to attack an intruder mouse which had been group housed (10/cage). […] The total fighting time (TFT) in seconds was recorded during a 3 minute test period upon introduction of the intruder mouse into the cage of the aggressive mouse.

[7] = biological target: T1, post synaptic 5-HT1A receptor; assay: in vivo; settings: ip
Method: as §1, §2

Row | SMILES | Ki [1] | ED50 (reduction in avoidance responding) [2] | ED50 [3] | antagonism of serotonin syndrome induced by 8-OH-DPAT ([4]; 33 mg/kg i.p., 15 minutes prior to 5.6 mg/kg i.p. 8-OH-DPAT) | induction of 5-HT syndrome (agonist activity) ([4]; 10 and 30 mg/kg i.p., scored during 15 minute pretreatment) | in vivo postsynaptic 5-HT1A activity profile in serotonin syndrome tests [4] | dosage at which mice became debilitated (rotorod) ([5]; intraperitoneally 60 minutes before rotorod) | debilitating dose relative to dose that antagonized aggressive activity ([5]; rotorod vs isolation-induced aggression, mice i.p.) | total fighting time (TFT) ([6]; 0.5 mg/kg i.p.) | total fighting time (TFT) ([6]; 1.0 mg/kg i.p.) | total fighting time (TFT) ([6]; 3.0 mg/kg i.p.) | minimum effective dose in producing ataxia (rotorod motor coordination) ([5]; mouse, in vivo, ip) | minimal effective dose ([6]; Mus musculus, ip, 1 h, read-out: minimum effective dose in the isolation induced aggression study) | ED50 ([7]; read-out: agonist ED50) | ED50 ([7]; read-out: antagonist ED50)
1 | COc1ccccc1N1CCNCC1 | 9.5 nM | 5.6 mg/kg | 10.6 mg/kg | antagonized the serotonin syndrome | displayed agonist activity | weak partial agonist activity | ≥ 30.0 mg/kg | at least ten times the dose that antagonized aggressive activity | 5.1 s | 0.7 s | 0.1 s | – | – | – | –
2 | O=C1CC2(CCCC2)CC(=O)N1CCCCN1CCN(c2ncccn2)CC1 [buspirone, reference compound] | – | – | – | – | – | partial agonist profile | – | – | – | – | – | greater than 60.0 mg/kg | 10 mg/kg | 7 mg/kg | 4 mg/kg
